How the values were obtained:
[1] = system: ALOMY; experiment: greenhouse test, post-emergence treatment; assay type: in vivo, Alopecurus myosuroides; conditions: Use Example 17
Procedure: (§1) The culture containers used were plastic pots containing loamy sand with approximately 3.0% of humus as substrate. The seeds of the test plants were sown separately for each species.
(§2) For the post-emergence treatment, the test plants were grown to a plant height of from 3 to 15 cm, depending on the plant habit, and only then treated with the active compounds which had been suspended or emulsified in water. To this end, the test plants were either sown directly and grown in the same containers, or they were first grown separately as seedlings and transplanted into the test containers a few days prior to treatment.
(§3) Depending on the species, the plants were kept at 10-25° C. and 20-35° C., respectively. The test period extended over 2 to 4 weeks. During this time, the plants were tended and their response to the individual treatments was evaluated.
(§4) Evaluation was carried out using a scale from 0 to 100. 100 means no emergence of the plants, or complete destruction of at least the above-ground parts, and 0 means no damage or normal course of growth. Good herbicidal activity is given at values of at least 70, and very good herbicidal activity is given at values of at least 85.
(§5) The respective stated components A and B, and if appropriate, C were formulated as a 5% by weight or 10% by weight strength emulsion concentrate or a commercially available formulation of component B was used and, with addition of the amount of solvent system, introduced into the spray liquor used for applying the active compound. In the examples, the solvent used was water.
(§6) The test period extended over 20 or 21 days. During this time, the plants were tended, and their reactions to the treatment with active compound was monitored.
(§7) What was evaluated was the damage by the chemical compositions using a scale of from 0 to 100%, in comparison to the untreated control plants. 0 means no damage, and 100 means complete destruction of the plants.
(§8) In the examples below, using the method of S. R. Colby (1967) “Calculating synergistic and antagonistic responses of herbicide combinations”, Weeds 15, p. 22 ff., the value E, which is expected if the activity of the individual active compounds is only additive, was calculated.
(§9) where X=percent activity using active compound A at an application rate a; Y=percent activity using active compound B at an application rate b; E=expected activity (in %) by A+B at application rates a+b.
(§10) If the value found in experiments is higher than the value E calculated according to Colby, a synergistic effect is present.

[2] = system: STEME; experiment: greenhouse test, pre-emergence treatment; assay type: in vivo, Stellaria media; conditions: Use Example 2
Source text: as §1
(§11) For the pre-emergence treatment, the active compounds, suspended or emulsified in water, were applied directly after sowing by means of finely distributing nozzles. The containers were irrigated gently to promote germination and growth and subsequently covered with transparent plastic hoods until the plants had rooted. This cover caused uniform germination of the test plants unless this was adversely affected by the active compounds.
as §3, §4, §5, §6, §7, §8, §9, §10

[3] = system: DIGSA; experiment: greenhouse test, pre-emergence treatment; assay type: in vivo, Digitaria sanguinalis; conditions: for Herbicidal action in % after 21 days against DIGSA: Use Example 9
Source text: as §1, §11, §3, §4, §5, §6, §7, §8, §9, §10

[4] = system: DIGSA; experiment: greenhouse test, post-emergence treatment; assay type: in vivo, Digitaria sanguinalis; conditions: Use Example 18
Procedure: as §1, §2, §3
as §4, with “85. […]” for “85.”
as §6
What was evaluated was the damage by the chemical compositions using a scale of from 0 to 100%, in comparison to the untreated control plants. […]
In the examples below, using the method of S. R. Colby (1967) “Calculating synergistic and antagonistic responses of herbicide combinations”, Weeds 15, p. 22 ff., the value E, which is expected if the activity of the individual active compounds is only additive, was calculated. […]
as §10

[5] = system: LOLMU; experiment: greenhouse test, post-emergence treatment; assay type: in vivo, Lolium multiflorum; conditions: Use Example 17
Procedure: as §1, §2, §3, §4, §5, §6, §7, §8, §9, §10

[6] = system: ALOMY; experiment: greenhouse test, pre-emergence treatment; assay type: in vivo, Alopecurus myosuroides
Source text: as §1, §11, §3, §4, §5, §6, §7, §8, §9, §10

[7] = system: BRAPL; experiment: greenhouse test, pre-emergence treatment; assay type: in vivo, Brachiaria plantaginea
Source text: as §1, §11, §3, §4, §5, §6, §7, §8, §9, §10

[8] = system: ECHCG; experiment: greenhouse test, pre-emergence treatment; assay type: in vivo, Echinochloa crus-galli; conditions: Use Example 2
Source text: as §1, §11, §3, §4, §5, §6, §7, §8, §9, §10

In the case of `CN1C(=O)C(C)(Cc2ccccc2)N(C)C(=O)C1=Cc1ccccc1C#N` (stereo not drawn) [Example 20, 2-[5-Benzyl-1,4,5-trimethyl-3,6-dioxopiperazin-2-ylidenemethyl]benzo-nitrile], the “Herbicidal action in % after 20 days against ALOMY” value ([1]; 125 g/ha a.s.) is reported as 40%, the “Herbicidal action in % after 20 days against ALOMY” value ([1]; 250 g/ha a.s.) is reported as 70% and the “Herbicidal action in % after 20 days against STEME” value ([2]; 62.5 g/ha a.s.) is reported as 0%. The “Herbicidal action in % after 20 days against STEME” value ([2]; 125 g/ha a.s.) was 20%, the “Herbicidal action in % after 20 days against STEME” value ([2]; 250 g/ha a.s.) was 50% and the “Herbicidal action in % after 20 days against DIGSA” value ([3]; 125 g/ha a.s., Use Example 5) was 90%. For the same compound, the “Herbicidal action in % after 21 days against DIGSA” value ([3]; 125 g/ha a.s.) was 90%, the “Herbicidal action in % after 20 days against DIGSA” value ([3]; 125 g/ha a.s., Use Example 14) was 90% and the “Herbicidal action in % after 20 days against DIGSA” value ([3]; 250 g/ha a.s., Use Example 5) was 100%. For the same compound, the “Herbicidal action in % after 21 days against DIGSA” value ([3]; 250 g/ha a.s.) was 100%, the “Herbicidal action in % after 20 days against DIGSA” value ([4]; 62.5 g/ha a.s.) was 45% and the “Herbicidal action in % after 20 days against DIGSA” value ([4]; 125 g/ha a.s.) was 70%. For the same compound, the “Herbicidal action in % after 20 days against LOLMU” value ([5]; 125 g/ha a.s.) was 15%, the “Herbicidal action in % after 20 days against LOLMU” value ([5]; 250 g/ha a.s.) was 35% and the “Herbicidal action in % after 20 days against ALOMY” value ([6]; 62.5 g/ha a.s., Use Example 2) was 45%. For the same compound, the “Herbicidal action in % after 20 days against ALOMY” value ([6]; 125 g/ha a.s., Use Example 2) was 55%, the “Herbicidal action in % after 20 days against ALOMY” value ([6]; 125 g/ha a.s., Use Example 7) was 40% and the “Herbicidal action in % after 20 days against ALOMY” value ([6]; 125 g/ha a.s., Use Example 10) was 45%. The “Herbicidal action in % after 20 days against ALOMY” value ([6]; 125 g/ha a.s., Use Example 13) was 45%, the “Herbicidal action in % after 20 days against ALOMY” value ([6]; 125 g/ha a.s., Use Example 15) was 40% and the “Herbicidal action in % after 20 days against ALOMY” value ([6]; 250 g/ha a.s., Use Example 2) was 85%. For the same compound, the “Herbicidal action in % after 20 days against ALOMY” value ([6]; 250 g/ha a.s., Use Example 4) was 85%, the “Herbicidal action in % after 20 days against ALOMY” value ([6]; 250 g/ha a.s., Use Example 7) was 90% and the “Herbicidal action in % after 20 days against ALOMY” value ([6]; 250 g/ha a.s., Use Example 10) was 70%. For the same compound, the “Herbicidal action in % after 20 days against ALOMY” value ([6]; 250 g/ha a.s., Use Example 13) was 70%, the “Herbicidal action in % after 20 days against ALOMY” value ([6]; 250 g/ha a.s., Use Example 15) was 90% and the “Herbicidal action in % after 21 days against BRAPL” value ([7]; 31.25 g/ha a.s., Use Example 8) was 20%. The “Herbicidal action in % after 20 days against BRAPL” value ([7]; 125 g/ha a.s., Use Example 5) was 70%, the “Herbicidal action in % after 21 days against BRAPL” value ([7]; 125 g/ha a.s., Use Example 9) was 80% and the “Herbicidal action in % after 20 days against BRAPL” value ([7]; 125 g/ha a.s., Use Example 12) was 55%. For the same compound, the “Herbicidal action in % after 20 days against BRAPL” value ([7]; 250 g/ha a.s., Use Example 5) was 85%, the “Herbicidal action in % after 21 days against BRAPL” value ([7]; 250 g/ha a.s., Use Example 9) was 95% and the “Herbicidal action in % after 20 days against BRAPL” value ([7]; 250 g/ha a.s., Use Example 12) was 55%. The “Herbicidal action in % after 20 days against BRAPL” value ([7]; 250 g/ha a.s., Use Example 16) was 85%, the “Herbicidal action in % after 20 days against ECHCG” value ([8]; 62.5 g/ha a.s.) was 70% and the “Herbicidal action in % after 20 days against ECHCG” value ([8]; 125 g/ha a.s.) was 95%.

Reference: US20100190794A1, “Herbicidally Active Composition” (BASF SE, priority 2007, published 2010)
